Earlier results in patent publication US20060280786A1, “PHARMACEUTICAL FORMULATIONS FOR MINIMIZING DRUG-DRUG INTERACTIONS” (priority 2005, published 2006).

Details: 200 mg dose of itraconazole

fu (fraction of inhibitor drug unbound in plasma): 0.035
SMILES: CCC(C)n1ncn(-c2ccc(N3CCN(c4ccc(OCC5COC(Cn6cncn6)(c6ccc(Cl)cc6Cl)O5)cc4)CC3)cc2)c1=O (stereo not shown) [itraconazole]
